One molecule from US12636292B2, “Method and composition for reversing and/or inhibiting atherosclerosis” (ARJIL BIOTECH HOLDING COMPANY LIMITED, priority 2019, dated 2026) can be followed below.

Data set [1] can be described thus: Body weight in hypercholesterolemic rabbit model. It counts as in vivo. Conditions: rabbits on chow with 0.5% cholesterol plus 1% extract, 10 mg/kg pure compound or 10 mg/kg lovastatin; during the intervention. On the procedure:
(§1) 2 to 3 kg male, New Zealand White rabbits were individually caged and housed in temperature and humidity-controlled rooms. Light-dark cycles were 12 h each. After several days of acclimation, the animals were sequentially assigned to six feeding groups: standard rabbit chow (ND), standard rabbit chow containing 0.5% cholesterol (HF), standard rabbit chow containing both 0.5% cholesterol and 10 mg/kg Lovastatin (L), standard rabbit chow containing both 0.5% cholesterol and 1% ARH003 (ARH003), standard rabbit chow containing both 0.5% cholesterol and 1% ARH004 (ARH004), standard rabbit chow containing both 0.5% cholesterol and 10 mg/kg Pure compound (P).
(§2) Except standard rabbit chow, others groups were given standard rabbit chow containing 0.5% cholesterol for 4 weeks. The daily feeding amount for each rabbit was 50 g/kg body weight per day.
(§3) Diets were administered for 8 weeks, after the animals had adjusted to their new environment. At the beginning and end of the 12 weeks study, the rabbits were anesthetized by an intramuscular injection of Zoletil 50 (1 mL/kg) (Virbac Ltd., France), and blood samples were harvested. Finally, the aortas (from aortic arch to the bifurcation of the iliac arteries) and whole livers were collected from the rabbits after they were sacrificed for further histopathological analyses.

Data set [2] can be described thus: Blood chemistry analysis (serum triglyceride, total cholesterol) in hypercholesterolemic rabbits. It counts as in vivo, rabbit. The conditions noted are these: week 12; rabbits on 0.5% cholesterol chow plus 1% extract, 10 mg/kg pure compound or 10 mg/kg lovastatin; vs high fat diet group. On the procedure:
as §1, §2, §3
The animals were fasted overnight before blood drawing. […]

In the case of `CC[C@H](C)C(=O)O[C@H]1C[C@@H](C)C=C2C=C[C@H](C)[C@H](CC[C@@H]3C[C@@H](O)CC(=O)O3)[C@H]21` [lovastatin], in data set [1], the body weight gains entry is listed as “did not affect”. Further, the “serum total cholesterol levels” value in data set [2] is recorded as “higher”.
